Test results as given in paper PMC9866728, “Dosing Methods to Enable Cell-Based In Vitro Testing of Complex Substances: A Case Study with a PAH Mixture” (Toxics, 2022).
Several values for one entry are separate records, joined by “and”; a condition that tells them apart may be missing. Equal entries are not always repeated. Where two headings read alike, the source gives them in different places.

Key:
[1] = Smith et al. O-Rings; ref Smith et al. 2010 [24]; cited from earlier work
[2] = Table S1; ref PubChem; cited from earlier work
[3] = O-ring loading rate constant, larger O-rings; ref Smith et al. 2010 [24]; cited from earlier work
[4] = Loading kinetics of silicone micro-O-rings from methanol PAH solution (GC-MS/MS); type: physicochemical; details: for K Value: loading rate constant, one-phase association (h^-1); for K Value / Plateau Value / Y0: 10 µg/mL PAH mix in methanol; for Plateau Value: one-phase association fit of nominal Csilicone (µg/mL per Eq 1); for Y0: one-phase association fit of nominal Csilicone, 0-24 h; for Half-time Value / Span Value / Tau Value: one-phase association fit, micro-O-ring absorption
[5] = Recovery over time from exposure to cell culture media without cells (GC-MS/MS); type: physicochemical
[6] = bovine, 24 h
[7] = Protein binding: media-dissolved fraction (FMD) and unbound fraction (FUB) in cell culture media without cells (ultracentrifugation, GC-MS/MS)
[8] = MAF (400 ng/mL each PAH), one phase decay fit of nominal recovery
[9] = MAF (400 ng/mL each PAH), one phase decay fit of nominal recovery (text: ng/mL)
[10] = O-Rings (loaded in 10 µg/mL PAH solution), one phase association fit of nominal recovery
[11] = O-Rings, one phase association fit
[12] = O-Rings, one phase association fit (desorption into media)
[13] = Solvent Extract (DMSO, 15 ng/mL each PAH), one phase decay fit of nominal recovery
[14] = Solvent Extract (DMSO, 15 ng/mL each PAH), one phase decay fit of nominal recovery (text: ng/mL)
[15] = Solvent Extract, one phase decay fit

Structure (SMILES): c1ccc2c(c1)-c1cccc3cccc-2c13 [Fluoranthene]
- K [1]: 0.93
- LogKow (PubChem) [2]: 5.16
- Smith et al. 2010 K Value [3]: 1.41
- K Value [4]: 23.4013
- Plateau Value [4]: 0.3327
- Y0 [4]: 0
- Half-time Value [4]: 0.02962
- Span Value [4]: 0.3327
- Tau Value [4]: 0.04273
- Y0 [5, 8]: 391.9
- Plateau [5, 9]: 86.09
- K ([5]; MAF, one phase decay fit): 0.2998
- Span ([5]; MAF, one phase decay fit): 305.9
- Tau ([5]; MAF, one phase decay fit): 3.336
- Plateau [5, 10]: 0.9705
- Y0 [5, 10]: -0.1202
- Half-time [5, 11]: 0.594
- Span [5, 11]: 1.091
- Tau [5, 11]: 0.857
- K [5, 12]: 1.167
- Y0 [5, 13]: 14.59
- Plateau [5, 14]: 2.835
- K [5, 15]: 0.372
- Span [5, 15]: 11.75
- Tau [5, 15]: 2.688

Structure (SMILES): c1ccc2c(c1)Cc1ccccc1-2 [Fluorene]
- LogKow (PubChem) [2]: 4.18
- Smith et al. 2010 K Value [3]: 1.89
- K Value [4]: 26.7516
- Plateau Value [4]: 0.7821
- Y0 [4]: 0
- Half-time Value [4]: 0.02591
- Span Value [4]: 0.7821
- Tau Value [4]: 0.03738
- Y0 [5, 8]: 397.4
- Plateau [5, 9]: 50.15
- K ([5]; MAF, one phase decay fit): 0.7944
- Span ([5]; MAF, one phase decay fit): 347.3
- Tau ([5]; MAF, one phase decay fit): 1.259
- Plateau [5, 10]: 2.925
- Y0 [5, 10]: -0.4812
- Half-time [5, 11]: 0.4551
- Span [5, 11]: 3.406
- Tau [5, 11]: 0.6566
- K [5, 12]: 1.523
- Y0 [5, 13]: 14.61
- Plateau [5, 14]: 3.728
- K [5, 15]: 0.435
- Span [5, 15]: 10.88
- Tau [5, 15]: 2.299
- ISTD Resp. Ratio (Raw Data for FMD) ([6]; 0.375 µg/mL): 0.7014
- ISTD Resp. Ratio (Raw Data for FMD) ([6]; 10 µg/mL): 0.2015

Structure (SMILES): c1ccc2c(c1)ccc1ccccc12 [Phenanthrene]
- K [1]: 1.32
- LogKow (PubChem) [2]: 4.46
- Smith et al. 2010 K Value [3]: 1.66
- ISTD Resp. Ratio, stock ([7]; 0.375 ug/mL DMSO extract, 1 hr exposure block, stock reference samples STOCK_R1-R3, raw GC-MS/MS response ratio to ISTD): 7.517 and 6.997 and 7.303
- ISTD Resp. Ratio (Raw Data for FMD) ([7]; 0.375 ug/mL DMSO extract, 1 hr exposure, media-dissolved fraction, replicates DMSO_FMD_R1-R4, raw GC-MS/MS response ratio to ISTD): 0.8475 and 0.7152 and 0.8128 and 0.7589
- ISTD Resp. Ratio (Raw Data for FUB) ([7]; 0.375 ug/mL DMSO extract, 1 hr exposure, unbound fraction, replicates DMSO_FUB_R1-R4, raw GC-MS/MS response ratio to ISTD): 0.02919 and 0.03368 and 0.0397 and 0.002786
- ISTD Resp. Ratio, stock ([7]; 0.375 ug/mL DMSO extract, 24 hr exposure block, stock samples STOCK_R1-R3, GC-MS/MS area ratio to ISTD): 9.093 and 9.139 and 8.158
- ISTD Resp. Ratio (Raw Data for FMD) ([7]; 0.375 ug/mL DMSO extract, 24 hr exposure, media-dissolved fraction samples, replicates DMSO_FMD_R2-R4, GC-MS/MS area ratio to ISTD): 0.2846 and 0.2622 and 0.2363
- ISTD Resp. Ratio (Raw Data for FMD) ([7]; 0.375 ug/mL DMSO extract, 24 hr exposure, media-dissolved fraction, replicate DMSO_FMD_R1, raw GC-MS/MS response ratio to ISTD): 0.2681
- ISTD Resp. Ratio (Raw Data for FUB) ([7]; 0.375 ug/mL DMSO extract, 24 hr exposure, unbound fraction samples, replicates DMSO_FUB_R1-R4, GC-MS/MS area ratio to ISTD): 0.01396 and 0.01643 and 0.01239 and 0.00394
- ISTD Resp. Ratio (raw data for FMD) ([7]; 10 ug/mL MAF (MAF_1H_FMD), 1 hour exposure, replicates R1-R3): 58.1761 and 43.9105 and 63.6043
- ISTD Resp. Ratio (raw data for FUB) ([7]; 10 ug/mL MAF (MAF_1H_FUB), 1 hour exposure, replicates R1-R3): 0.06932 and 0.09392 and 0.08269
- ISTD Resp. Ratio, Raw Data for FMD (media-dissolved fraction) ([7]; 10 ug/mL MAF, 24 hour exposure, samples MAF_24H_FMD_R1-R3 (replicates), raw GC-MS/MS analyte/ISTD response ratio): 34.5977 and 34.7241 and 34.153
- ISTD Resp. Ratio, Raw Data for FUB (unbound fraction) ([7]; 10 ug/mL MAF, 24 hour exposure, samples MAF_24H_FUB_R1-R3 (replicates), raw GC-MS/MS analyte/ISTD response ratio): 0.04313 and 0.02976 and 0.1769
- ISTD Resp. Ratio (Raw Data for FMD) ([7]; 10 ug/mL micro-O-Rings, 1 hour exposure, media-dissolved fraction samples, replicates ORINGS_1H_FMD_R1-R3, GC-MS/MS area ratio to ISTD): 0.01581 and 0.07741 and 0.0739
- ISTD Resp. Ratio (Raw Data for FUB) ([7]; 10 ug/mL micro-O-Rings, 1 hour exposure, unbound fraction samples, replicates ORINGS_1H_FUB_R1-R3, GC-MS/MS area ratio to ISTD): 0.004514 and 0.0003336 and 0.01406
- ISTD Resp. Ratio (Raw Data for FMD) ([7]; 10 ug/mL micro-O-Rings, 24 hour exposure, media-dissolved fraction samples, replicate ORINGS_24H_FMD_R1, GC-MS/MS area ratio to ISTD): 0.01817
- ISTD Resp. Ratio (raw data for FMD) ([7]; O-rings (ORINGS_24H_FMD), 24 hour exposure, media without cells, GC-MS/MS analyte/ISTD response ratio, replicates R2-R3): 0.001128 and 0.05584
- ISTD Resp. Ratio (raw data for FUB) ([7]; O-rings (ORINGS_24H_FUB), 24 hour exposure, media without cells, GC-MS/MS analyte/ISTD response ratio, replicates R1-R3): 0.001509 and 0.006155 and 0.006123
- ISTD Resp. Ratio, stock ([7]; STOCK_10_R1-R3 (replicates) of the block 10 ug/mL MAF, 24 hr exposure, raw GC-MS/MS analyte/ISTD response ratio): 241.043 and 253.185 and 249.851
- ISTD Resp. Ratio (STOCK_10) ([7]; STOCK_10 reference samples of the 10 ug/mL MAF section, replicates R1-R3): 251.693 and 253.185 and 259.309
- ISTD Resp. Ratio (STOCK_10) ([7]; STOCK_10 reference samples of the O-rings section, replicates R1-R3): 105.268 and 100.389 and 100.167
- K Value [4]: 29.7306
- Plateau Value [4]: 0.2434
- Y0 [4]: 0
- Half-time Value [4]: 0.02331
- Span Value [4]: 0.2434
- Tau Value [4]: 0.03364
- Y0 [5, 8]: 398.5
- Plateau [5, 9]: 48.89
- K ([5]; MAF, one phase decay fit): 0.9181
- Span ([5]; MAF, one phase decay fit): 349.6
- Tau ([5]; MAF, one phase decay fit): 1.089
- Plateau [5, 10]: 0.3728
- Y0 [5, 10]: -0.1954
- Half-time [5, 11]: 0.1645
- Span [5, 11]: 0.5682
- Tau [5, 11]: 0.2373
- K [5, 12]: 4.214
- Y0 [5, 13]: 14.6
- Plateau [5, 14]: 2.716
- K [5, 15]: 0.502
- Span [5, 15]: 11.89
- Tau [5, 15]: 1.992
